In data set [1] the test system is recombinant NL4-3 virus (nef section replaced with Renilla luciferase gene) in MT-2 cells. Briefly: HIV cell culture assay (antiviral activity, luciferase readout). It counts as cell-based. The conditions noted are these: Renilla, NL43, MT-2 cells infected for 4-5 days with recombinant NL4-3 Renilla luciferase virus. Put shortly:
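EC50 was derived by median-effect fitting of Renilla luciferase signal from MT-2 cells. These cells were infected for 4–5 days with NL4-3 reporter virus (nef partly replaced by luciferase; made in 293T cells) in the presence of serially diluted compound. Activity was quantified with a live-cell luciferase substrate.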

The nature of data set [2]: Compound cytotoxicity, XTT-based colorimetric assay. The conditions noted are these: human; uninfected MT2 cells, day 4, XTT; read-out: CC50. It counts as cell-based. The gist of the method: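 Cells seeded as for the antiviral assay but left uninfected (MT2). Compound exposure continued to day 4. XTT reagent added and colour read. CC50 calculated.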
A general note: Tetrazolium assays rely on reduction of a dye to a coloured formazan, in cell work by metabolically active cells.

The values below come from patent US12594276B2, “Inhibitors of human immunodeficiency virus replication” (ViiV Healthcare UK (No.5) Limited, priority 2024, dated 2026).

One may read the EC50 as the concentration that produces a half-maximal response. The CC50 is the concentration at which the toxic effect on the cells reaches its halfway point. Turning to `Cc1cc(C2(F)CCC(F)(F)CC2)nc2nc([C@H](Cc3cc(F)cc(F)c3)NC(=O)Cn3nc(C(F)F)c4c3C(F)(F)[C@@H]3C[C@H]43)n(-c3ccc(Cl)c4c(NS(C)(=O)=O)nn(CCN5CCOC(C)(C)C5)c34)c(=O)c12` (atropisomer, axis not shown; (P)) [Example 578, N-[(1S)-1-[(3P)-3-{4-chloro-1-[2-(2,2-dimethylmorpholin-4-yl)ethyl]-3-methanesulfonamido-1H-indazol-7-yl}-5-methyl-4-oxo-7-(1,4,4-trifluorocyclohexyl)-3H,4H-pyrido[2,3-d]pyrimidin-2-yl]-2-(3,5-difluorophenyl)ethyl]-2-[(2S,4R)-9-(difluoromethyl)-5,5-difluoro-7,8-diazatricyclo[4.3.0.0^2,^4]nona-1(6),8-dien-7-yl]acetamide], the EC50 in data set [1] was determined as 0.008 nM. Also, in data set [2], the CC50 at 4 days is above 20 nM.
For `Cc1cc(C2(F)CCC(F)(F)CC2)nc2nc([C@H](Cc3cc(F)cc(F)c3)NC(=O)Cn3nc(C(F)F)c4c3C(F)(F)[C@@H]3C[C@H]43)n(-c3ccc(Cl)c4c(NS(C)(=O)=O)nn(CCN5CCOCC5(C)C)c34)c(=O)c12` (atropisomer, axis not shown; (P)) [Example 579, N-[(1S)-1-[(3P)-3-{4-chloro-1-[2-(3,3-dimethylmorpholin-4-yl)ethyl]-3-methanesulfonamido-1H-indazol-7-yl}-5-methyl-4-oxo-7-(1,4,4-trifluorocyclohexyl)-3H,4H-pyrido[2,3-d]pyrimidin-2-yl]-2-(3,5-difluorophenyl)ethyl]-2-[(2S,4R)-9-(difluoromethyl)-5,5-difluoro-7,8-diazatricyclo[4.3.0.0^2,^4]nona-1(6),8-dien-7-yl]acetamide] the same measures were 0.011 nM and above 20 nM.
For `Cc1cc(C2(F)CCC(F)(F)CC2)nc2nc([C@H](Cc3cc(F)cc(F)c3)NC(=O)Cn3nc(C4CC4)c4c3C[C@@H]3C[C@H]43)n(-c3ccc(Cl)c4c(NS(C)(=O)=O)nn(CCN5CCO[C@@H](C(C)C)C5)c34)c(=O)c12` (atropisomer, axis not shown; (P)) [Example 581, N-[(1S)-1-[(3P)-3-(4-chloro-3-methanesulfonamido-1-{2-[(2S)-2-(propan-2-yl)morpholin-4-yl]ethyl}-1H-indazol-7-yl)-5-methyl-4-oxo-7-(1,4,4-trifluorocyclohexyl)-3H,4H-pyrido[2,3-d]pyrimidin-2-yl]-2-(3,5-difluorophenyl)ethyl]-2-[(2S,4S)-9-cyclopropyl-7,8-diazatricyclo[4.3.0.0^2,^4]nona-1(6),8-dien-7-yl]acetamide], the EC50 in data set [1] stood at 0.015 nM. The CC50 at 4 days in data set [2] is above 20 nM.
Take `Cc1cc(C2(F)CCC(F)(F)CC2)nc2nc([C@H](Cc3cc(F)cc(F)c3)NC(=O)Cn3nc(C4CC4)c4c3C[C@@H]3C[C@H]43)n(-c3ccc(Cl)c4c(NS(C)(=O)=O)nn(CCN5CCO[C@H](C(C)C)C5)c34)c(=O)c12` (atropisomer, axis not shown; (P)) [Example 582, N-[(1S)-1-[(3P)-3-(4-chloro-3-methanesulfonamido-1-{2-[(2R)-2-(propan-2-yl)morpholin-4-yl]ethyl}-1H-indazol-7-yl)-5-methyl-4-oxo-7-(1,4,4-trifluorocyclohexyl)-3H,4H-pyrido[2,3-d]pyrimidin-2-yl]-2-(3,5-difluorophenyl)ethyl]-2-[(2S,4S)-9-cyclopropyl-7,8-diazatricyclo[4.3.0.0^2,^4]nona-1(6),8-dien-7-yl]acetamide]: the EC50 in data set [1] was found to be 0.017 nM. The CC50 at 4 days in data set [2] is above 20 nM.
